Measurements as given in patent US10800791B2, “Triazole ACC inhibitors and uses thereof” (Gilead Apollo, LLC, priority 2015, dated 2020).
Converted amounts (≈) assume the structure as drawn. Where two headings read alike, the source gives them in different places.

Columns and labels:
fungal (fACC2) = fungal (fACC2) (UniProt Q00955); settings: read-out: fACC2 (in vitro ACC2 Inhibition Assay, IC50), ADP-Glo, 5 nM ACC2, 20 μM ATP, 20 μM acetyl-CoA
human (hACC2) = human (hACC2) (Homo sapiens, UniProt O00763); experiment: In vitro ACC inhibition assay (ADP-Glo), hACC2; type: biochemical; settings: 5 nM ACC2, 20 μM ATP, 20 μM acetyl-CoA
Protocol: The detailed procedure is as follows. […] 10 μL ADP glo reagent was added. […] 20 μL kinase detection reagent was added.

C. krusei = experiment: Antifungal Activity Assay (broth microtiter MIC), C. krusei; type: cell-based, Candida krusei; settings: for MIC: Pichia kudriavzevii, ATCC6258, 48 h
Protocol: (§1) Compounds of the present invention were evaluated in an Antifungal Activity Assay. An exemplary procedure for the assay, which measures the susceptibility of various Candida species to antifungal compounds, follows. Compounds to be tested (including fluconazole and amphotericin B) were dissolved in DMSO to obtain a solution having a concentration of 1 mg/mL. These stock solutions were sterile filtered using a 0.22 um nylon syringe filter, then diluted in sterile water to achieve a final concentration of 128 μg/mL.
(§2) All species were grown from frozen stock by directly plating on to freshly prepared Sabouraud Dextrose agar (BD, Difco) and incubated overnight in ambient air at 35° C. for 24 h. A direct suspension was prepared in RPMI 1640+MOPS (Lonza, Biowhittaker) by taking individual colonies from the overnight cultures using sterile swabs soaked in sterile saline. The concentration of the suspension was determined using pre-determined standard curves. These suspensions were then diluted down to 5×10^3 CFU/mL to achieve a final concentration of 2.5×10^3 CFU/mL once added to the microtiter plate as per CLSI guidelines (M27-A3, Vol. 28 No. 14).
(§3) Broth microtiter MIC challenge plates were prepared following CLSI guidelines (M27-A3, Vol. 28 No. 14). The original CLSI guidelines focused on reading Candida MICs after 48 h of incubation. As reading after only 24 h offers a clear advantage of patient care, QC limits are being established for all drugs at 24 h. That being said there are no known interpretive breakpoints for amphotericin B at 24 h and the current fluconazole interpretive breakpoints are based on a 48 h reading. The MICs for the test compounds were recorded at 48 h. All MIC determinations were achieved by visually comparing the growth found in the antibiotic challenged wells to that of the growth control.

C. albicans = experiment: Antifungal Activity Assay (broth microtiter MIC), C. albicans; type: cell-based, Candida albicans; settings: for MIC: Candida albicans, ATCC90028, 48 h
Protocol: as §1, §2, §3

C. parapsilosis = experiment: Antifungal Activity Assay (broth microtiter MIC), C. parapsilosis; type: cell-based, Candida parapsilosis; settings: for MIC: Lodderomyces parapsilosis, ATCC22019, 48 h
Protocol: as §1, §2, §3

[1] = Table 3b (additional results), ATCC 6258, 3 replicates, MIC recorded at 48 h, read-out: MIC, C. krusei ATCC 6258
[2] = Table 3b (additional results), ATCC 90028, 3 replicates, MIC recorded at 48 h, read-out: MIC, C. albicans ATCC 90028
[3] = Table 3b (additional results), ATCC 22019, 3 replicates, MIC recorded at 48 h, read-out: MIC, C. parapsilosis ATCC 22019
[4] = Table 3a, 3 replicates, MIC recorded at 48 h
[5] = Table 3a, ATCC 6258, 3 replicates, MIC recorded at 48 h, read-out: MIC, C. krusei ATCC 6258
[6] = Table 3a, ATCC 90028, 3 replicates, MIC recorded at 48 h, read-out: MIC, C. albicans ATCC 90028
[7] = Table 3a, ATCC 22019, 3 replicates, MIC recorded at 48 h, read-out: MIC, C. parapsilosis ATCC 22019
[8] = read-out: MIC, C. krusei ATCC 6258, Table 3b (additional results), 3 replicates, MIC recorded at 48 h
[9] = read-out: MIC, C. albicans ATCC 90028, Table 3b (additional results), 3 replicates, MIC recorded at 48 h
[10] = read-out: MIC, C. parapsilosis ATCC 22019, Table 3b (additional results), 3 replicates, MIC recorded at 48 h

Chain of human (hACC2) (O00763 whole entry): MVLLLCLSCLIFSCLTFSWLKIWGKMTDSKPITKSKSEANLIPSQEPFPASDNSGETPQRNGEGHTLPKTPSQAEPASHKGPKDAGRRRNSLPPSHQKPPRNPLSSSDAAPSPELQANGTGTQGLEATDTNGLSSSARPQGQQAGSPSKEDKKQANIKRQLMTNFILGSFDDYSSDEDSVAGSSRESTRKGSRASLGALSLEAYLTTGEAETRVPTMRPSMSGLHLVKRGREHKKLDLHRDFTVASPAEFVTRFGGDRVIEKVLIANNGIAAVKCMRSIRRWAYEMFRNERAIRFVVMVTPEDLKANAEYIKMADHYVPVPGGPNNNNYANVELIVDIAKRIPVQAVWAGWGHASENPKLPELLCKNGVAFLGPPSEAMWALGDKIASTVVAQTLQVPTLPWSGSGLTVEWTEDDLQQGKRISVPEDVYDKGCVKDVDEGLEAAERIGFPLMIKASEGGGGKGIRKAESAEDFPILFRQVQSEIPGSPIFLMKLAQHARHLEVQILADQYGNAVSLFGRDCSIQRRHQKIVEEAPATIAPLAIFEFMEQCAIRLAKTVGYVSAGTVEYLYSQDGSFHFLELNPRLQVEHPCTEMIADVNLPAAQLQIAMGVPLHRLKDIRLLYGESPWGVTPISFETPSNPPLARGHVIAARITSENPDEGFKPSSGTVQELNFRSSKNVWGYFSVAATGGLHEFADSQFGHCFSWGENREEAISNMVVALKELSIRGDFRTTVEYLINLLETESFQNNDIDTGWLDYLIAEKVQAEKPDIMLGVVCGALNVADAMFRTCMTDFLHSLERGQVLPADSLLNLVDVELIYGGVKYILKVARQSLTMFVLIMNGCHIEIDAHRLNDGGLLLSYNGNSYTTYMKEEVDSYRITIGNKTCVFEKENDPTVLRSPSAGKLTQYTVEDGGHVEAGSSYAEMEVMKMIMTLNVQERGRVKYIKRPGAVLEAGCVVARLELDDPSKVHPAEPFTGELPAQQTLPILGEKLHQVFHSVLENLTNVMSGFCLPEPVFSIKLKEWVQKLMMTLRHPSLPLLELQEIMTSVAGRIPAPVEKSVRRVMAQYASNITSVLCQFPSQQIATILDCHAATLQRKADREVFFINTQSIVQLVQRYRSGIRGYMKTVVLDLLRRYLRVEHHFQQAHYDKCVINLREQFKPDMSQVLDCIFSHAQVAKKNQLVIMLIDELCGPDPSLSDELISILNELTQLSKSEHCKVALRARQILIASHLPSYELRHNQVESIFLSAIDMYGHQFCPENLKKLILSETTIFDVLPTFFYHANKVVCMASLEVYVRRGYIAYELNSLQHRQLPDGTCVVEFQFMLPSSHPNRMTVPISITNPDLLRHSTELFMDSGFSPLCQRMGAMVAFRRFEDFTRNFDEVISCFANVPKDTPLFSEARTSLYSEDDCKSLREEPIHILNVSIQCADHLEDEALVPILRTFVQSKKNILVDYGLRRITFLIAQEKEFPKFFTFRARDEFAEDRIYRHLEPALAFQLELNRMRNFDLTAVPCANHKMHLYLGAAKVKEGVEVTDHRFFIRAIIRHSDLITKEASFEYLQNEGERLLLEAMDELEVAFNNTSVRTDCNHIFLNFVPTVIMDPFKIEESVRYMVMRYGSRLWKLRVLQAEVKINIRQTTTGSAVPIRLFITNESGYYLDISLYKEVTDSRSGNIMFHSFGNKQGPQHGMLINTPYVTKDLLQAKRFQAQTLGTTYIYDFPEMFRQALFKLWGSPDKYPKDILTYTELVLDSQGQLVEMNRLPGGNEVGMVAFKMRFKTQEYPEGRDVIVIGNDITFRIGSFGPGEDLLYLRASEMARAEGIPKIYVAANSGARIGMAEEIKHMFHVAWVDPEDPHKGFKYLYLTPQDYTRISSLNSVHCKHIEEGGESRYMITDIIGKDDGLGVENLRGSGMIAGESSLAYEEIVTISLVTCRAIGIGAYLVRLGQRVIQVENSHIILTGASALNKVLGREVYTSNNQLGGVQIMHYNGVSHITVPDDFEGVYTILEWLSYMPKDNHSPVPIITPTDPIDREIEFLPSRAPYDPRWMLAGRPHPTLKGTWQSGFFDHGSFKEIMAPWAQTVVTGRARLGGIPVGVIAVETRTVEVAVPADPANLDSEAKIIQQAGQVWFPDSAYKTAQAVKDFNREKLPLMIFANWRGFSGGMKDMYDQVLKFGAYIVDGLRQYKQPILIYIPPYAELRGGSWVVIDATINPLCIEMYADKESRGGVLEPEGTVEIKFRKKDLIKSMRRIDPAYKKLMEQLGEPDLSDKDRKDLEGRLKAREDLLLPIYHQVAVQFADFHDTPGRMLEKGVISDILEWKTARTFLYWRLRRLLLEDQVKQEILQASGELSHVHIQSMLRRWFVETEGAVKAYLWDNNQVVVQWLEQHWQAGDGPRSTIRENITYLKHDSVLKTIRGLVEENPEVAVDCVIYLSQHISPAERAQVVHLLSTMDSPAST
Chain of fungal (fACC2) (Q00955 whole entry): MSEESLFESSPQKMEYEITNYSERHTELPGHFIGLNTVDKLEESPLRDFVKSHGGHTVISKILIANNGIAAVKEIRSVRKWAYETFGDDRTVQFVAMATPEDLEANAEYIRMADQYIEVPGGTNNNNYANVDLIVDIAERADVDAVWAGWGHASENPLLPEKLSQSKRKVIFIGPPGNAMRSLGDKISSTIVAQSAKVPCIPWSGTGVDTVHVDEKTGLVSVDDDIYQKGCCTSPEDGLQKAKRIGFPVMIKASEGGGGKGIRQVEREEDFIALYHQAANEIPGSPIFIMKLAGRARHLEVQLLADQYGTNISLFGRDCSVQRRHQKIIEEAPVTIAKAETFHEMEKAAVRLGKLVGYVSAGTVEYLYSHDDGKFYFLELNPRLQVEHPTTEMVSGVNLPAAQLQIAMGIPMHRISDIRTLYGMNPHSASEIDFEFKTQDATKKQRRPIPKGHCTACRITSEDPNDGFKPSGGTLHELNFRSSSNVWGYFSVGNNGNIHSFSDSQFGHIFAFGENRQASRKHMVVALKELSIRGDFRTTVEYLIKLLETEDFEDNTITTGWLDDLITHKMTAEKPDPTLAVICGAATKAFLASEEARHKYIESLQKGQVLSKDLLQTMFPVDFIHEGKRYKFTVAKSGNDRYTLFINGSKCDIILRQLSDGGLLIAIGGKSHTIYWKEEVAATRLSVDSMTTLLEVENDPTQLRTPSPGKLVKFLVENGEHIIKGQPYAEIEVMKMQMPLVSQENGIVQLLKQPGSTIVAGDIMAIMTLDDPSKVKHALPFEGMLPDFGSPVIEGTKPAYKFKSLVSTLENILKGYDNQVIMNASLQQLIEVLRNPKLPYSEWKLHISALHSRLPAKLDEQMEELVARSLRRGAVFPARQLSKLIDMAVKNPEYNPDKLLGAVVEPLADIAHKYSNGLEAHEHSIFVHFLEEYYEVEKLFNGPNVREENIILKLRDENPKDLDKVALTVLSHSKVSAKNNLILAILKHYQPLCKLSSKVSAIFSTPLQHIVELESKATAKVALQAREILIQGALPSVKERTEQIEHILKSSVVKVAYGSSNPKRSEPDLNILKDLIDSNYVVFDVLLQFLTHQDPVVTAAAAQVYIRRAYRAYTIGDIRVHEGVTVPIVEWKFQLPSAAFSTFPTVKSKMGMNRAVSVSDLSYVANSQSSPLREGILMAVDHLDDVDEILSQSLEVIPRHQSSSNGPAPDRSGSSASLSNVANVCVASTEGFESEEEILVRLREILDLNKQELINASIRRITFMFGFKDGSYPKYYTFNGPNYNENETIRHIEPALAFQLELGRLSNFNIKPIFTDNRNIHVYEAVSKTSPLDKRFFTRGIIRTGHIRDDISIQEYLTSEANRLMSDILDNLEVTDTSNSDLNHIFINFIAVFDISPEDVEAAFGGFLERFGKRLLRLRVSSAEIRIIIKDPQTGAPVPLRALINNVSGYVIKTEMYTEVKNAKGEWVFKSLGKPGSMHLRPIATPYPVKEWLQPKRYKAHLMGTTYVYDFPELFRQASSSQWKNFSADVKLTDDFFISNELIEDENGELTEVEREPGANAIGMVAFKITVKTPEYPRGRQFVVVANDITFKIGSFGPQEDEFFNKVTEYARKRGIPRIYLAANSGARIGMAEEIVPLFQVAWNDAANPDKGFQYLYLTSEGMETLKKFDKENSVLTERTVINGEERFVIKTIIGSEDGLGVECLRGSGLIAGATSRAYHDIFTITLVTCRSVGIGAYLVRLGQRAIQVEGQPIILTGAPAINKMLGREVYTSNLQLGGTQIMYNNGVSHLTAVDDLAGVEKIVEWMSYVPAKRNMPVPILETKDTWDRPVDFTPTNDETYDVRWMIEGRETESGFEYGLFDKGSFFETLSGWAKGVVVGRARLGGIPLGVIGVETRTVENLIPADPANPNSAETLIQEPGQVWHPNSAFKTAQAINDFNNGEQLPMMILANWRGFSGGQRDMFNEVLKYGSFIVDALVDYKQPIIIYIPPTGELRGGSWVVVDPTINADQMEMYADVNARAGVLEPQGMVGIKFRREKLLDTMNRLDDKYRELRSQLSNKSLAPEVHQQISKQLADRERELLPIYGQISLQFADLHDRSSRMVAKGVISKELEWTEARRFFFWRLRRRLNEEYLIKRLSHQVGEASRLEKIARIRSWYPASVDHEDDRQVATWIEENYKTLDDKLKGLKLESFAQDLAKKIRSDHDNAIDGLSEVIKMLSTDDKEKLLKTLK

Compound	IC50 (fungal (fACC2); Table 2b, additional results) [nM]	IC50 (human (hACC2); Table 2b, additional results) [nM]	MIC (C. krusei; [1]) [µg/mL]	MIC (C. albicans; [2]) [µg/mL]	MIC (C. parapsilosis; [3]) [µg/mL]	IC50 (fungal (fACC2); Table 2a) [nM]	IC50 (human (hACC2); Table 2a) [nM]	MIC, C. krusei ATCC 6258 (C. krusei; [4])	MIC, C. krusei ATCC 6258 (C. krusei; Table 3b (additional results), 3 replicates, MIC recorded at 48 h)	MIC, C. albicans ATCC 90028 (C. albicans; [4])	MIC, C. parapsilosis ATCC 22019 (C. parapsilosis; [4])	MIC (C. krusei; [5]) [µg/mL]	MIC (C. albicans; [6]) [µg/mL]	MIC (C. parapsilosis; [7]) [µg/mL]	MIC (C. krusei; [8]) [µg/mL]	MIC (C. albicans; [9]) [µg/mL]	MIC (C. parapsilosis; [10]) [µg/mL]	MIC (C. krusei; read-out: MIC, C. krusei ATCC 6258, Table 3a, 3 replicates, MIC recorded at 48 h) [µg/mL]	MIC (C. albicans; read-out: MIC, C. albicans ATCC 90028, Table 3a, 3 replicates, MIC recorded at 48 h) [µg/mL]	MIC (C. parapsilosis; read-out: MIC, C. parapsilosis ATCC 22019, Table 3a, 3 replicates, MIC recorded at 48 h) [µg/mL]
CCc1ccc(F)cc1[C@H](Cn1c(=O)n(C(C)(C)C(=O)NC(C)C)c(=O)c2c(C)c(-n3nccn3)sc21)OC[C@H](C)C#N [Compound I-243]	1 to 5	> 40	> 4.01	2.01 to 4 (≈ 3.3 to 6.56 µM)	2.01 to 4 (≈ 3.3 to 6.56 µM)	–	–	–	–	–	–	–	–	–	–	–	–	–	–	–
COCCO[C@@H](Cn1c(=O)n(C(C)(C)C(=O)NC2CCC2)c(=O)c2c(C)c(-n3nccn3)sc21)c1cc(F)ccc1OC [Compound I-100]	1 to 5	1 to 5	–	2.01 to 4 (≈ 3.27 to 6.51 µM)	0.25 to 1 (≈ 0.407 to 1.63 µM)	1 to 5	1 to 5	AA (MIC of 0.06-0.24 μg/mL)	A (MIC of 0.25-1.0 μg/mL)	A (MIC of 0.25-1.0 μg/mL)	A (MIC of 0.25-1.0 μg/mL)	–	–	–	–	–	–	–	–	–
COc1ccc(F)cc1[C@H](Cn1c(=O)n(C(C)C(=O)NC(C)C)c(=O)c2c(C)c(-n3nccn3)sc21)OCCO (some centres unmarked) [Compound I-131]	0.3 to 1	5 to 10	1.01 to 2 (≈ 1.76 to 3.48 µM)	2.01 to 4 (≈ 3.5 to 6.96 µM)	1.01 to 2 (≈ 1.76 to 3.48 µM)	0.4 to 1	5 to 10	–	–	–	–	0.25 to 1 (≈ 0.435 to 1.74 µM)	1.1 to 2 (≈ 1.91 to 3.48 µM)	1.1 to 2 (≈ 1.91 to 3.48 µM)	–	–	–	–	–	–
COc1ccc(F)cc1[C@H](Cn1c(=O)n(C(C)(C)C(N)=O)c(=O)c2c(C)c(-n3nccn3)sc21)OCC(C)(C)C#N [Compound I-155]	1 to 5	5 to 10	2.01 to 4 (≈ 3.44 to 6.85 µM)	1.01 to 2 (≈ 1.73 to 3.43 µM)	> 4.01	1 to 5	5 to 10	–	–	–	–	1.1 to 2 (≈ 1.88 to 3.43 µM)	0.25 to 1 (≈ 0.428 to 1.71 µM)	2.1 to 4 (≈ 3.6 to 6.85 µM)	–	–	–	–	–	–
CCc1ccccc1[C@H](Cn1c(=O)n(C(C)(C)C(=O)NC(C)C)c(=O)c2c(C)c(-n3nccn3)sc21)O[C@H]1CC[C@@H](C#N)CC1 [Compound I-242]	1 to 5	1 to 5	–	–	–	–	–	–	–	–	–	–	–	–	1.01 to 2 (≈ 1.6 to 3.17 µM)	1.01 to 2 (≈ 1.6 to 3.17 µM)	1.01 to 2 (≈ 1.6 to 3.17 µM)	–	–	–
COc1ccccc1[C@@H](O)Cn1c(=O)n([C@@H](C)C(=O)N(C)C(C)C)c(=O)c2c(C)c(-n3nccn3)sc21 [Compound I-200]	1 to 5	10 to 40	2.01 to 4 (≈ 3.82 to 7.6 µM)	2.01 to 4 (≈ 3.82 to 7.6 µM)	2.01 to 4 (≈ 3.82 to 7.6 µM)	–	–	–	–	–	–	–	–	–	–	–	–	–	–	–
Cc1c(-n2nccn2)sc2c1c(=O)n(C(C)(C)C(=O)NC(C)C)c(=O)n2C[C@H](OCCO)c1cc(F)ccc1OCc1ccccc1 [Compound I-237]	1 to 5	10 to 40	1.01 to 2 (≈ 1.52 to 3.01 µM)	1.01 to 2 (≈ 1.52 to 3.01 µM)	1.01 to 2 (≈ 1.52 to 3.01 µM)	–	–	–	–	–	–	–	–	–	–	–	–	–	–	–
COc1ccc(F)cc1[C@H](Cn1c(=O)n(C(C)(C)C(=O)NC(C)C)c(=O)c2c(C)c(-n3nccn3)sc21)OCCN1CC(C#N)C1 [Compound I-146]	1 to 5	> 40	–	–	–	1 to 5	–	–	–	–	–	–	–	–	0.25 to 1 (≈ 0.383 to 1.53 µM)	1.01 to 2 (≈ 1.55 to 3.06 µM)	0.25 to 1 (≈ 0.383 to 1.53 µM)	2.1 to 4 (≈ 3.22 to 6.13 µM)	2.1 to 4 (≈ 3.22 to 6.13 µM)	2.1 to 4 (≈ 3.22 to 6.13 µM)
COc1ccc(F)cc1[C@H](Cn1c(=O)n(C(C)(C)C(=O)O)c(=O)c2c(C)c(-n3nccn3)sc21)OCCN1CC(C#N)C1 [Compound I-145]	1 to 5	10 to 40	> 4.01	> 4.01	> 4.01	1 to 5	–	–	–	–	–	2.1 to 4 (≈ 3.43 to 6.54 µM)	2.1 to 4 (≈ 3.43 to 6.54 µM)	2.1 to 4 (≈ 3.43 to 6.54 µM)	–	–	–	–	–	–
